Laboratory results: patent US11725217B2, “Methods to enhance myocardial regeneration and/or repair” (Regents of the University of Minnesota, priority 2018, dated 2023)
Where a SMILES comes first, the peptide text is derived from it. The star is where a group is joined. Cbz = O=C(OCc1ccccc1)*; CH2F = FC*

Experiments:
[1] = test system: isolated mouse neonatal cardiomyocytes; assay: Proliferation of cultured neonatal (P1) cardiomyocytes (cell number, EdU incorporation, Ki67, FACS); format: cell-based; conditions: for EdU+ cardiomyocytes: pan-caspase inhibition experiment, 48 h, SAG with/without pan-caspase inhibition; for Ki67+-Actinin+ cells: versus DMSO control
Protocol: Immunohistochemistry was performed on cryosections (10 μm thick) using standard procedures (Singh et al., 2012; Singh et al. 2007; Adhikari et al., 2011; Singh et al., 2010). Briefly, sections were rehydrated, permeabilized and blocked with 10% normal donkey serum (NDS), 0.1% Triton X-100 in PBS at room temperature and incubated overnight at 4° C. with primary antibodies: α-actinin (Abeam; 1:300), desmin (Novus biologicals; 1:300), Shh (Santa Cruz Biotechnology; 1:200), endomucin (Abeam; 1:100), SM22 (Abeam; 1:400), α-phospho-Histone H3 (Ser10) (Millipore; 1:100), Ki67 (Abcam; 1:200), PCNA (Santa Cruz Biotechnology; 1:100), Mef2a (Santa Cruz Biotechnology; 1:100), Smoothened (Abcam; 1:200), Nkx 2-5 (Santa Cruz Biotechnology; 1:100) and GFP (ThermoFisher Scientific; 1:300) sera. Sections were rinsed and incubated with combinations of secondary antibodies (1:400) including Alexa 488, Alexa 594, Cy3 and Cy5 (Jackson ImmunoResearch Laboratories). EdU staining was performed using the EdU labeling kit (Life Technologies)
Ventricular cardiomyocytes were isolated using previously published protocols (Collesi et al. 2008). Briefly, ventricles were dissected from P1 pups, minced in CBFHH (calcium and bicarbonate-free Hanks with Hepes) buffer. Subsequently, the minced ventricles were digested in CBFHH buffer containing 1.75 mg/ml of trypsin and 20 μg/ml of DNaseII (Sigma-Aldrich). Cells were preplated for 1 h (3 times) onto 100-mm primaria (Corning Life Sciences) dishes in culture medium containing 10% serum to remove fibroblasts. Unattached cardiomyocytes were plated at a desired density. […] After 12 h, the culture medium was changed and cells were subjected to the different treatments (SAG; 4 μg/mL and CyA; 5 μg/ml) and analyzed. For apoptotic pathway inhibition, neonatal cardiomyocytes were treated with cell permeable small molecule inhibitor (Z-VAD-FMK; R&D Systems) with or with SAG. For the EdU incorporation assay, cardiomyocytes were incubated with 20 μM EdU for 48 h and fixed using 4% PFA for 10 min at room temperature. […] For qPCR and FACS analysis, cells were harvested using trypsin and processed for further analysis. […] For the EdU incorporation assay, cardiomyocytes were incubated with 20 μM EdU for 48 h and fixed using 4% PFA for 10 min at room temperature.

[2] = test system: adult mouse cardiomyocytes; assay: EdU incorporation in isolated adult cardiomyocytes; format: cell-based; conditions: n=3, p<0.05
Protocol: (§1) Ventricular cardiomyocytes were isolated using previously published protocols (Collesi et al. 2008). Briefly, ventricles were dissected from P1 pups, minced in CBFHH (calcium and bicarbonate-free Hanks with Hepes) buffer. Subsequently, the minced ventricles were digested in CBFHH buffer containing 1.75 mg/ml of trypsin and 20 μg/ml of DNaseII (Sigma-Aldrich). Cells were preplated for 1 h (3 times) onto 100-mm primaria (Corning Life Sciences) dishes in culture medium containing 10% serum to remove fibroblasts. Unattached cardiomyocytes were plated at a desired density. Using this protocol, we routinely obtained >85-90% cardiomyocytes (confirmed using immunohistochemical techniques and an alpha-actinin antibody). […] For apoptotic pathway inhibition, neonatal cardiomyocytes were treated with cell permeable small molecule inhibitor (Z-VAD-FMK; R&D Systems) with or with SAG. For the EdU incorporation assay, cardiomyocytes were incubated with 20 μM EdU for 48 h and fixed using 4% PFA for 10 min at room temperature. P7 cardiomyocytes were isolated using a similar protocol as that of the P1 cardiomyocyte isolation protocol with modifications including the perfusion based tissue digestion using collagenase type-2 enzyme solution. >95% rod-shaped binucleated cardiomyocytes were routinely obtained using this protocol. […]

[3] = test system: HH signaling; assay: qPCR in P7 cardiomyocytes; format: cell-based, mouse; conditions: P7-isolated cardiomyocytes
Protocol: (§2) RNA isolation and qPCR analysis from newt tissue was performed as previously described^5. For chamber based qPCR analysis, the regenerating heart including BA, AT and ventricle was harvested and rinsed in PBS to remove blood cells. Subsequently, the BA, AT and ventricle were collected from heart tissue (n=12) for further processing. RNA isolation from cultured cardiomyocytes was performed using a standard protocol as per the manufacturer's instructions. Total RNA was isolated using the miRVANA kit (Ambion) and cDNA was made using SuperScript […] kit (Invitrogen).
Ventricular cardiomyocytes were isolated using previously published protocols (Collesi et al. 2008). Briefly, ventricles were dissected from P1 pups, minced in CBFHH (calcium and bicarbonate-free Hanks with Hepes) buffer. Subsequently, the minced ventricles were digested in CBFHH buffer containing 1.75 mg/ml of trypsin and 20 μg/ml of DNaseII (Sigma-Aldrich). Cells were preplated for 1 h (3 times) onto 100-mm primaria (Corning Life Sciences) dishes in culture medium containing 10% serum to remove fibroblasts. Unattached cardiomyocytes were plated at a desired density. Using this protocol, we routinely obtained >85-90% cardiomyocytes (confirmed using immunohistochemical techniques and an alpha-actinin antibody). […]

[4] = test system: isolated mouse neonatal cardiomyocytes; assay: Live/dead assay in cultured neonatal cardiomyocytes; format: cell-based; conditions: 48 h; n=3
Protocol: as §1

[5] = test system: P7 cardiomyocytes; assay: Proliferation of isolated P7 cardiomyocytes (EdU incorporation, time-lapse microscopy); format: cell-based, mouse
Protocol: Ventricular cardiomyocytes were isolated using previously published protocols (Collesi et al. 2008). Briefly, ventricles were dissected from P1 pups, minced in CBFHH (calcium and bicarbonate-free Hanks with Hepes) buffer. Subsequently, the minced ventricles were digested in CBFHH buffer containing 1.75 mg/ml of trypsin and 20 μg/ml of DNaseII (Sigma-Aldrich). Cells were preplated for 1 h (3 times) onto 100-mm primaria (Corning Life Sciences) dishes in culture medium containing 10% serum to remove fibroblasts. Unattached cardiomyocytes were plated at a desired density. Using this protocol, we routinely obtained >85-90% cardiomyocytes (confirmed using immunohistochemical techniques and an alpha-actinin antibody). […] For apoptotic pathway inhibition, neonatal cardiomyocytes were treated with cell permeable small molecule inhibitor (Z-VAD-FMK; R&D Systems) with or with SAG. For the EdU incorporation assay, cardiomyocytes were incubated with 20 μM EdU for 48 h and fixed using 4% PFA for 10 min at room temperature. P7 cardiomyocytes were isolated using a similar protocol as that of the P1 cardiomyocyte isolation protocol with modifications including the perfusion based tissue digestion using collagenase type-2 enzyme solution. >95% rod-shaped binucleated cardiomyocytes were routinely obtained using this protocol. For qPCR and FACS analysis, cells were harvested using trypsin and processed for further analysis. For the time-lapse microscopic experiments, isolated P7 mCherry+ cardiomyocytes were plated on glass-bottom petri dish coated with fibronectin. After 2 h of attachment, media was changed containing DMSO or SAG and the petri dish was placed in the environmental chamber for imaging. Adult cardiomyocyte isolation was performed (Mahmoud et al., 2013). Briefly, the adult heart tissue was dissociated by perfusion of a collagenase type 2 enzyme solution. Isolated cardiomyocytes were cultured in 1% serum media in the presence of DMSO or SAG. For the EdU incorporation assay, cardiomyocytes were incubated with 20 μM EdU for 48 h and fixed using 4% PFA for 10 min at room temperature.

[6] = test system: day-60 hiPSC-CMs; assay: Proliferation of day-60 hiPSC-derived cardiomyocytes (EdU, Ki67); format: cell-based, human; conditions: 48 h, n=3, p<0.01
Protocol: The media was then changed with RPMI/B27 minus insulin and BMP4 and FGF from d1-d2. On d3, the medium was changed with RPMI/B27 minus insulin and IWP-4. The differentiated cells were maintained in RPMI/B27 with insulin media from d5-d60. […] Immunohistochemical analysis was performed as described previously.

[7] = test system: HH signaling; assay: qPCR of HH pathway and cell cycle transcripts in neonatal cardiomyocytes; format: cell-based, mouse; conditions: for Gli1 expression (qPCR) / Gli3 expression (qPCR) / Mycn transcripts (qPCR): isolated mouse neonatal cardiomyocytes
Protocol: as §2
Briefly, ventricles were dissected from P1 pups, minced in CBFHH (calcium and bicarbonate-free Hanks with Hepes) buffer. […] Cells were preplated for 1 h (3 times) onto 100-mm primaria (Corning Life Sciences) dishes in culture medium containing 10% serum to remove fibroblasts. Unattached cardiomyocytes were plated at a desired density. […] For apoptotic pathway inhibition, neonatal cardiomyocytes were treated with cell permeable small molecule inhibitor (Z-VAD-FMK; R&D Systems) with or with SAG. For the EdU incorporation assay, cardiomyocytes were incubated with 20 μM EdU for 48 h and fixed using 4% PFA for 10 min at room temperature. […] For qPCR and FACS analysis, cells were harvested using trypsin and processed for further analysis. For the time-lapse microscopic experiments, isolated P7 mCherry+ cardiomyocytes were plated on glass-bottom petri dish coated with fibronectin. After 2 h of attachment, media was changed containing DMSO or SAG and the petri dish was placed in the environmental chamber for imaging. […] Briefly, the adult heart tissue was dissociated by perfusion of a collagenase type 2 enzyme solution. Isolated cardiomyocytes were cultured in 1% serum media in the presence of DMSO or SAG. For the EdU incorporation assay, cardiomyocytes were incubated with 20 μM EdU for 48 h and fixed using 4% PFA for 10 min at room temperature.

[8] = test system: regenerating newt heart; conditions: continuous blockade of HH signals, CyA 2 μg/mL in aquarium water daily; n=8, p<0.05
Protocol: Adult red-spotted newts, Notophthalmus viridescens, were housed as described in Singh et al. (2012). For heart resection surgery, adult newts were anesthetized in 0.1% MS-222 solution for 10 min. Each newt was placed in a supine position under a stereomicroscope. The outer skin was wiped using 70% ethanol-chlorhexidine solution and the pericardial sac was opened to expose the heart. The apex of the ventricle was resected (˜25-30%) using iricdectomy scissors. Following resection, the blood flow was controlled by the formation of the blood clot. The resected heart was maneuvered carefully into the pericardial sac and sutured using 8.0 ethilon monofilament sutures. Following resection surgery, newts were allowed to recover in an isolated tank containing sulfmerazine antibiotic solution and later placed in their designated aquariums. The resected ventricular mass was measured using a Sartorius weighing balance. […] CyA-mediated inhibition of HH signaling was achieved by daily treatment of the resected newts at 2 μg/mL diluted in the aquarium water. At specified time periods, animals were sacrificed and tissues were collected for further processing. For EdU labelling, the resected newts were injected intraperitoneally (i.p.) with 100 μg/gm of EdU for a 7 day period prior to sacrifice and harvested for immunohistochemical analysis. […]

COC(=O)C[C@H](NC(=O)[C@H](C)NC(=O)[C@@H](NC(=O)OCc1ccccc1)C(C)C)C(=O)CF [pan-caspase inhibitor, Z-VAD-FMK] (Cbz-Val-Ala-Asp(OMe)-CH2F)
EdU+ cardiomyocytes ([1]; n=3): did not result in any change

CNC1CCC(N(Cc2cccc(-c3ccncc3)c2)C(=O)c2sc3ccccc3c2Cl)CC1 (stereo not drawn) [SAG]
α-Actinin+-EdU+ cardiomyocytes [2]: increased number
expression of Cdkn1b (p27) (qPCR) [3]: reduced expression
expression of Ptc1, Ccne1 and Ccnd2 (qPCR) [3]: increased expression
live/dead assay versus control [4]: No difference
α-Actinin+-EdU+ cardiomyocytes ([5]; P7 cardiomyocytes, n=4): increased number
increase in number of mono-, bi-, and multi-nucleated cardiomyocytes ([5]; P7 cardiomyocytes, n=4, p<0.05): ~3 fold
dividing αMHC-mCherry+ P7 cardiomyocytes (time-lapse microscopy) ([5]; none found in DMSO control): multiple dividing
increase in α-Actinin+-EdU+ cells compared to controls ([1]; SAG 4 μg/mL, EdU 48 h, n=4, p<0.05): 2.5 fold
increased cardiomyocyte proliferation, FACS analysis of α-Actinin+-EdU+ population ([1]; n=3, p<0.05): 2.5 fold
EdU+ cardiomyocytes ([1]; n=3): comparable increase
cardiomyocyte proliferation (α-Actinin+-EdU+) ([1]; serum-free conditions, n=3, p<0.05): increased cardiomyocyte proliferation
number of cultured neonatal cardiomyocytes ([1]; various concentrations): dose-dependent increase
Ki67+-Actinin+ cells ([1]; n=3): increased number
increased α-Actinin+-EdU+ cardiomyocytes [6]: 2 fold
increased α-Actinin+-Ki67+ cardiomyocytes [6]: ~3 fold
Ptc1, Ccnd2, Ccnd1 and Ccne1 transcripts (qPCR) ([7]; HH signaling activation): induction of cell cycle kinetics
Gli1 expression (qPCR) [7]: induced
Gli3 expression (qPCR) [7]: reduced
Mycn transcripts (qPCR) [7]: increased
levels of caspase-3 transcripts (qPCR) ([7]; versus control, data not shown): unaltered

CC1=C2C[C@H]3[C@@H](CC=C4C[C@@H](O)CC[C@@]43C)[C@@H]2CC[C@]12O[C@@H]1C[C@H](C)CN[C@H]1[C@H]2C [CyA, Cyclopamine]
heart regeneration following injury [8]: complete ablation of heart regeneration and induction of scar formation
Ki67+-Actinin+ cells ([1]; n=3): not detected
Gli1 expression (qPCR) [7]: reduced
Gli3 expression (qPCR) [7]: increased
Mycn transcripts (qPCR) [7]: reduced expression

c1ccc2c(Oc3nc(Nc4ccc(N5CCOCC5)cc4)c4ncn(C5CCCCC5)c4n3)cccc2c1 [Purmorphamine]
cardiomyocyte proliferation (Actinin+-EdU+, immunohistochemical images) ([1]; isolated neonatal cardiomyocytes pulsed with EdU, FIG. 20): promotes cardiomyocyte proliferation
